Source: BindingDB's records for patent US20240158408 (280 Bio, 2024)

Legend:
[1] = molecular target: Phosphatidylinositol 4,5-bisphosphate 3-kinase catalytic subunit alpha isoform [H1047R] (Homo sapiens, UniProt P42336, H1047R)
[2] = molecular target: Phosphatidylinositol 4,5-bisphosphate 3-kinase catalytic subunit alpha isoform (Homo sapiens, UniProt P42336); test: ADP-Glo Kinase Assay
Chain of Phosphatidylinositol 4,5-bisphosphate 3-kinase catalytic subunit alpha isoform (P42336 whole entry, canonical isoform): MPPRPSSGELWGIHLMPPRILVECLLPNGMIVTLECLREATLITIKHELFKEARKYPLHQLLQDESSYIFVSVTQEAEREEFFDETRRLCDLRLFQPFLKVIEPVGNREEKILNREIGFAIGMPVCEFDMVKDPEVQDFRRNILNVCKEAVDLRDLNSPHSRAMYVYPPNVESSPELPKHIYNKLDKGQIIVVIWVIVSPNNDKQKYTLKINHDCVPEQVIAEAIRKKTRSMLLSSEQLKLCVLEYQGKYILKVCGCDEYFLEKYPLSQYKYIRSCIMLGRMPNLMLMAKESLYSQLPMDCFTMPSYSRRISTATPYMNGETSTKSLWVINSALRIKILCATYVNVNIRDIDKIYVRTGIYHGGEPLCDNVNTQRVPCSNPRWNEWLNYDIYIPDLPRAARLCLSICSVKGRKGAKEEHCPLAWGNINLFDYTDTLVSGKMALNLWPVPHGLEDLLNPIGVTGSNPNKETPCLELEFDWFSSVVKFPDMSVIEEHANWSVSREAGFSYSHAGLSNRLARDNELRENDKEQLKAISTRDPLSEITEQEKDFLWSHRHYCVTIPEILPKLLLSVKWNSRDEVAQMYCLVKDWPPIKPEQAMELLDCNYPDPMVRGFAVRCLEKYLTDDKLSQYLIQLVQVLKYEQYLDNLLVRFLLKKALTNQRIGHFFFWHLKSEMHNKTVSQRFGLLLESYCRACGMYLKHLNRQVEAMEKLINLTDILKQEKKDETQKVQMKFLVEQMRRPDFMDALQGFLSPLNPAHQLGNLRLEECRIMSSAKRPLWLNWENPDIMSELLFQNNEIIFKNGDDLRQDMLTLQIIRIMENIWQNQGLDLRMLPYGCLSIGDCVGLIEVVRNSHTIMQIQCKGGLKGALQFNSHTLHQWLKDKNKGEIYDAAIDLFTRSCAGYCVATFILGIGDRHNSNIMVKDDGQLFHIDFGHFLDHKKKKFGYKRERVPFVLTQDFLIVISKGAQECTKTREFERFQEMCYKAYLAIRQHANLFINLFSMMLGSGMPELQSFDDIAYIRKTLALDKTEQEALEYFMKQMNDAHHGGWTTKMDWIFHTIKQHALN

Chain of Phosphatidylinositol 4,5-bisphosphate 3-kinase catalytic subunit alpha isoform [H1047R] (P42336 whole entry H1047R, canonical isoform): as the sequence (P42336 whole entry, canonical isoform) above, with H1047R counted along it

Compound | IC50 [1] [µM] | IC50 [2] [µM]
Cn1nc2c(-c3ccc4ncnn4c3C#N)cc(NC(=O)c3cc(F)cc(C(F)(F)F)c3)c3c2c1C(=O)NC3c1cc(Cl)ccc1Cl (stereo unspecified) [US20240158408, Compound YL107] | < 0.25 | > 10
Cn1nc2c(-c3ccc4ncnn4c3C#N)cc(NC(=O)c3cc(F)cc(C(F)(F)F)c3)c3c2c1C(=O)NC3c1cc(F)ccc1Cl (stereo unspecified) [US20240158408, Compound YL106] | < 0.25 | > 10
Cn1nc2ccc(NC(=O)c3cc(F)cc(C(F)(F)F)c3)c3c2c1C(=O)NC3c1cc(Cl)ccc1Cl (stereo unspecified) [US20240158408, Compound YL104] | < 0.25 | > 10
